Numbers after ± are expanded uncertainties.
Conditions: Liquid; for mass density: 298.15 K, 101.33 kPa

Row | SMILES | mass density [kg/m3] | Normal boiling temperature [°C] | mass density (Vibrating tube method) [kg/m3]
1 | CC(C)(C)Cl [2-chloro-2-methylpropane] | 836.45 ± 0.65 | 50.73 ± 0.26 | –
2 | CCC(C)Cl (stereo not given) [2-chlorobutane] | 867.26 ± 0.62 | 68.11 ± 0.26 | –
3 | CCCCCl [1-chlorobutane] | 880.67 ± 0.6 | 78.37 ± 0.26 | –
4 | C1CCOCC1 [tetrahydropyran] | – | 88.08 ± 0.26 | 878.8 ± 0.5
5 | CC(C)CCl [1-chloro-2-methylpropane] | 870.94 ± 0.99 | 68.90 ± 0.26 | –

— the NIST ThermoML archive (doi:10.1016/j.fluid.2005.02.014)
